What was measured:
Plasmid DNA [1] = test: Non-specific plasmid DNA cleavage (hydrolytic conditions), gel electrophoresis; assay type: biochemical
Protocol: The appearance of open circular DNA (form II) and the disappearance of supercoiled DNA (form I) was monitored via gel electrophoresis.
Metalloligands comprising the transition metal ions Fe, Mn, Co, and Ni were formed by mixing a 10 μM solution of the salts FeSO4, MnCl2, CoSO4, and NiCi2, and an equivalent volume of 10 μM kanamycin A for 12 h at 35 ° C. Complex formation was monitored by thin layer chromatography, using PrOH:Me2CO:NH4OAc (20%(aq)) (1:1:5:0.025) on silica gel plates. […]

[2] = Stability of the metalloligands in aqueous solution; conditions: purified complex
R23 RNA [3] = conditions: cited from earlier work
Plasmid DNA [4] = test: Non-specific plasmid DNA cleavage under oxidizing conditions; assay type: biochemical; conditions: for cleavage of DNA without metalloligand: no metalloligand
Protocol: Plasmid DNA at a concentration of 50 μM, bp was added to a reaction solution containing 20 mM HEPES, pH 7.3, and the metalloligands of Examples 1-4 and the reducing agent ascorbic acid. […] The metalloligands of examples 1 to 4 also degraded plasmid DNA completely in the presence of 10 μM H2O2.
However, superoxide dismutase (SOD) and NaN3 inhibited oxidative DNA cleavage mediated by Cu(kanamycin A). Accordingly, it is believed that activated oxygen species (such as O2^− or ^1O2) are involved in plasmid cleavage when the metalloligand and the substrate DNA are reacted under oxidizing conditions.

R23 RNA [5] = test: Specific cleavage of 23-mer R23 RNA, FPLC analysis; assay type: biochemical
Protocol: The metalloligand is added to a sample containing substrate RNA with the recognized binding motif. Preferably, the RNA is in an aqueous solution having a pH of from about 7 to about 8. Preferably, the reaction is conducted at a temperatures ranging from 4° C. to about 40° C.

linear oligo (A12-18) = test: Cleavage of linear oligo (A12-18); conditions: similar reaction conditions as R23
R23 RNA [6] = test: Cleaving R23 RNA at select sites under oxidizing conditions; assay type: biochemical
Protocol: Uniformly labeled R23 RNA was incubated at 37° C. for 1 hr with various concentrations of Cu(kanamycin A) in the presence and absence of the co-reactants H2O2 and ascorbate. Cleavage products were separated on a denaturing polyacrylamide gel. […] These sites are depicted in FIG. 1. […] RNA cleavage of 30% was observed by FPLC with 1 nM Cu(kanamycin A) after incubation at 37° C. for 1 hour. Cleavage efficiencies of approximately 25% were obtained for solutions containing 50 pM Cu(kanamycin A) and 100 μM ascorbate or 1 μM H2O2 following incubation for 2 h at 37° C. Thus, Cu(kanamycin A) is able to selectively cleave RNA at physiological pH and under mild oxidizing conditions.

poly(C) = test: Cleavage of poly(C); conditions: similar reaction conditions as R23

Cu(neamine)
time to appearance of open circular DNA (form II) (Plasmid DNA [1]; 0.1 μmolar complex, plasmid DNA 50 μM bp, 10 mM HEPES pH 7.3, 37 °C): within less than one hour | stability in aqueous solution [2]: stable in aqueous solution for more than one day

Cu(neomycin B)
concentration at which plasmid DNA was cleaved (as low as) (Plasmid DNA [1]): 100 nM

NC[C@@H]1O[C@H](O[C@H]2[C@@H](O)[C@H](O[C@@H]3[C@@H](O)[C@H](N)C[C@H](N)[C@H]3O[C@H]3O[C@H](CN)[C@@H](O)[C@H](O)[C@H]3N)O[C@@H]2CO)[C@H](N)[C@@H](O)[C@@H]1O [neomycin B]
binding affinity to R23 RNA (R23 RNA [3]): high binding affinity

[Cu+2] [Cu^2+(aq), reference compound]
cleavage of DNA without metalloligand (Plasmid DNA [4]; Cu2+ and ascorbate): did not occur | cleavage of DNA without metalloligand (Plasmid DNA [4]; Cu2+(aq) alone): did not occur

Cu(kanamycin A)
conversion of supercoiled DNA to linear form (Plasmid DNA [4]; 5 nM complex, 10 μM ascorbate, supercoiled DNA 51 μM base pair): Complete conversion | effect of hydroxy radical quenchers on oxidative DNA cleavage (Plasmid DNA [4]; DMSO and EtOH): did not inhibit | effect of SOD and NaN3 on oxidative DNA cleavage (Plasmid DNA [4]; superoxide dismutase (SOD) and NaN3): inhibited | nicking of plasmid DNA (Plasmid DNA [1]; 500 nM complex, 5 minutes, plasmid DNA 50 μM bp, 20 mM HEPES pH 7.3): At least some DNA was nicked | time to complete degradation of plasmid DNA (Plasmid DNA [1]; 1 μM complex, plasmid DNA 50 μM bp, 20 mM HEPES pH 7.3): ≤ 1 h | effect of quenchers on DNA cleavage (Plasmid DNA [1]; addition of SOD, NaN3, DMSO, EtOH): not inhibited | effect of excess metal-free aminoglycoside on DNA cleavage (Plasmid DNA [1]; addition of excess metal-free aminoglycoside): inhibited cleavage | DNA cleavage under anaerobic conditions (Plasmid DNA [1]; argon atmosphere): not inhibited | cleavage of structured 23 mer RNA (R23 RNA [5]; 10 nmol complex, pH 7.3, 37 °C, 90 minutes): Good results | hydrolysis of R23 RNA (R23 RNA [5]; 20 nM complex, 23-mer RNA 30 μM base pair, 90 minutes, 20 mM HEPES pH 7.3, FPLC): 54% | hydrolysis efficiency of R23 RNA (R23 RNA [5]; 100 nM complex instead of 20 nM): Hydrolysis efficiency increased | cleavage of linear oligo (A12-18) (linear oligo (A12-18)): no cleavage | cleavage efficiency (R23 RNA [6]; 50 pM complex, 100 μM ascorbate or 1 μM H2O2, 2 h, 37 °C): approximately 25% | RNA cleavage (R23 RNA [6]; 1 nM complex, 37 °C, 1 hour, FPLC): 30% | sites of cleavage in R23 RNA (R23 RNA [6]; 37 °C, 1 hr, presence and absence of H2O2 and ascorbate, denaturing polyacrylamide gel): one in the loop region at G^15 and the other in the stem region at C^4 | degradation of target RNA (R23 RNA [6]; nanomolar complex, 100 μM ascorbate or 1 μM H2O2): extremely efficient degradation | stability in aqueous solution [2]: stable in aqueous solution for more than one day | cleavage of poly(C) (poly(C)): no cleavage

Cu(kanamycin A)2
concentration at which plasmid DNA was cleaved (as low as) (Plasmid DNA [1]): 100 nM

Source: patent US6403777B1, “Metalloligands for cleaving nucleic acids” (The Ohio State University Research Foundation, priority 1999, dated 2002)
